Key:
Experiment in all cases: relative viability (nuclei count vs DMSO), 5 days (fraction); higher = more cells survive
FG-4592 + Pemetrexed = compound: Cc1nc(C(=O)NCC(=O)O)c(O)c2ccc(Oc3ccccc3)cc12 [FG-4592] + Nc1nc2[nH]cc(CCc3ccc(C(=O)N[C@@H](CCC(=O)O)C(=O)O)cc3)c2c(=O)[nH]1 [Pemetrexed] (partner 0.2 µM)
Method in brief: (§1)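 The day after seeding in 1536-well plates, lung cancer cell lines were treated by pin tool with a single drug, or with a fixed anchor-drug dose together with five library-drug doses (not always all listed) in √10 steps. After 5 days, a combined fix-and-stain solution (final 0.05% Triton X-100, 1% formaldehyde, 1 ug/ml Hoechst) was added. Nuclei counted on 4× images gave relative viability as treated counts over vehicle counts, reported as the median of duplicate plates.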

FG-4592 + Crizotinib = compound: Cc1nc(C(=O)NCC(=O)O)c(O)c2ccc(Oc3ccccc3)cc12 [FG-4592] + C[C@@H](Oc1cc(-c2cnn(C3CCNCC3)c2)cnc1N)c1c(Cl)ccc(F)c1Cl [Crizotinib] (partner 1 µM)
Method in brief: as §1

IU1-47 + Linsitinib = compound: CC1=CC(=C(N1C2=CC=C(C=C2)Cl)C)C(=O)CN3CCCCC3 [IU1-47] + C[C@]1(O)C[C@@H](c2nc(-c3ccc4ccc(-c5ccccc5)nc4c3)c3c(N)nccn32)C1 [Linsitinib] (partner 1 µM)
Method in brief: as §1

FG-4592 + Olaparib = compound: Cc1nc(C(=O)NCC(=O)O)c(O)c2ccc(Oc3ccccc3)cc12 [FG-4592] + O=C(c1cc(Cc2n[nH]c(=O)c3ccccc23)ccc1F)N1CCN(C(=O)C2CC2)CC1 [Olaparib] (partner 8 µM)
Method in brief: as §1

| Cell Line | relative viability (FG-4592 + Pemetrexed; first compound 0.08 µM) | relative viability (FG-4592 + Pemetrexed; first compound 0.253 µM) | relative viability (FG-4592 + Pemetrexed; first compound 0.8 µM) | relative viability (FG-4592 + Pemetrexed; first compound 2.53 µM) | relative viability (FG-4592 + Pemetrexed; first compound 8 µM) | relative viability (FG-4592 + Crizotinib; first compound 0.08 µM) | relative viability (FG-4592 + Crizotinib; first compound 0.253 µM) | relative viability (FG-4592 + Crizotinib; first compound 0.8 µM) | relative viability (FG-4592 + Crizotinib; first compound 2.53 µM) | relative viability (FG-4592 + Crizotinib; first compound 8 µM) | relative viability (IU1-47 + Linsitinib; first compound 0.08 µM) | relative viability (IU1-47 + Linsitinib; first compound 0.253 µM) | relative viability (IU1-47 + Linsitinib; first compound 0.8 µM) | relative viability (IU1-47 + Linsitinib; first compound 2.53 µM) | relative viability (IU1-47 + Linsitinib; first compound 8 µM) | relative viability (FG-4592 + Olaparib; first compound 0.08 µM) | relative viability (FG-4592 + Olaparib; first compound 0.253 µM) | relative viability (FG-4592 + Olaparib; first compound 0.8 µM) | relative viability (FG-4592 + Olaparib; first compound 2.53 µM) | relative viability (FG-4592 + Olaparib; first compound 8 µM) |
| --- | --- | --- | --- | --- | --- | --- | --- | --- | --- | --- | --- | --- | --- | --- | --- | --- | --- | --- | --- | --- |
| HCC-827 | 0.232 | 0.255 | 0.235 | 0.26 | 0.255 | 0.92 | 0.892 | 0.923 | 1.02 | 0.869 | 0.99 | 0.92 | 0.941 | 1.01 | 0.963 | 0.591 | 0.624 | 0.625 | 0.705 | 0.729 |
| LK-2 | 0.26 | 0.277 |  | 0.239 | 0.268 |  | 0.23 |  | 0.279 | 0.216 | 0.742 | 0.697 | 0.592 | 0.335 | 0.416 | 0.556 | 0.787 | 0.613 | 0.701 | 0.662 |
| HCC-366 | 0.182 | 0.148 | 0.242 | 0.181 | 0.258 | 0.469 | 0.471 | 0.565 | 0.628 | 0.325 | 0.698 | 0.643 | 0.951 |  | 0.567 | 0.331 | 0.353 | 0.352 | 0.435 | 0.296 |
| BEN | 0.548 | 0.649 | 0.592 | 0.822 | 0.726 | 0.729 | 0.745 | 0.743 | 0.803 | 0.594 | 1.02 | 0.934 | 1.08 | 0.915 | 0.863 | 1.13 | 0.99 | 1.07 | 1.02 | 0.956 |
| NCI-H23 | 0.567 | 0.562 | 0.644 | 0.534 | 0.793 | 0.556 | 0.471 | 0.654 | 0.627 | 0.472 | 0.607 | 0.741 | 0.686 | 0.665 | 0.533 | 0.34 | 0.333 | 0.365 | 0.321 | 0.296 |
| 201T | 0.355 | 0.331 | 0.305 | 0.29 | 0.308 | 1 | 1.01 | 1.05 | 1.02 | 0.974 | 1.05 | 1.02 | 1.06 |  | 1.11 | 0.841 | 0.794 | 0.843 | 0.878 | 0.827 |
| NCI-H460 | 0.0673 | 0.0639 | 0.058 | 0.0799 | 0.0618 | 0.87 | 0.864 | 1.21 | 0.952 | 0.994 | 1.21 | 1.1 | 0.986 | 0.665 | 0.559 | 0.445 | 0.449 | 0.462 | 0.51 | 0.43 |
| NCI-H661 | 0.904 | 0.903 | 0.944 | 0.894 | 1.02 |  |  | 1.29 | 1.04 | 1.1 | 0.622 | 0.644 | 0.596 | 0.419 | 0.474 | 0.708 | 0.727 | 0.822 | 0.757 | 0.816 |
| HCC-15 | 0.21 | 0.235 | 0.22 | 0.221 | 0.232 | 0.819 | 0.712 | 0.808 | 0.866 | 0.875 | 0.931 | 0.967 | 0.9 | 0.917 | 0.801 | 0.684 | 0.709 | 0.741 | 0.615 | 0.719 |
| LCLC-103H | 0.435 | 0.456 | 0.51 | 0.478 | 0.457 | 0.884 | 0.977 | 1.01 | 0.994 | 1.05 | 1.07 | 1.07 | 1.18 | 1.07 | 1.3 | 0.746 | 0.751 | 0.695 | 0.708 | 0.751 |
| NCI-H441 | 0.267 | 0.343 | 0.272 | 0.296 | 0.248 | 0.582 | 0.646 | 0.916 | 0.72 | 0.632 | 0.703 | 0.49 | 0.594 | 0.438 | 0.44 | 0.431 | 0.462 | 0.49 | 0.502 | 0.493 |
| EPLC-272H | 0.321 | 0.223 | 0.319 | 0.353 | 0.377 | 0.844 | 0.72 | 0.631 | 0.888 | 0.873 | 1.24 | 1.27 | 1.4 |  | 1.16 | 0.665 | 0.633 | 0.886 | 0.74 | 0.697 |

— the supplement of paper PMC10307832
